In patent US9822130B2, “Triazolo-pyrazinyl derivatives useful as soluble guanylate cyclase activators” (Merck Sharp & Dohme Corp., priority 2014, dated 2017) one finds EC50 data, which are given here for 15 molecules.

The target of this test is T1, sGC α1/β1 heterodimer stably expressed in CHO-K1 cell line (CHO-K1/sGC) (Homo sapiens, UniProt Q02108+Q02153).
T1 construct: expressed in transfected cells
T1 sequence (Q02108 1-690): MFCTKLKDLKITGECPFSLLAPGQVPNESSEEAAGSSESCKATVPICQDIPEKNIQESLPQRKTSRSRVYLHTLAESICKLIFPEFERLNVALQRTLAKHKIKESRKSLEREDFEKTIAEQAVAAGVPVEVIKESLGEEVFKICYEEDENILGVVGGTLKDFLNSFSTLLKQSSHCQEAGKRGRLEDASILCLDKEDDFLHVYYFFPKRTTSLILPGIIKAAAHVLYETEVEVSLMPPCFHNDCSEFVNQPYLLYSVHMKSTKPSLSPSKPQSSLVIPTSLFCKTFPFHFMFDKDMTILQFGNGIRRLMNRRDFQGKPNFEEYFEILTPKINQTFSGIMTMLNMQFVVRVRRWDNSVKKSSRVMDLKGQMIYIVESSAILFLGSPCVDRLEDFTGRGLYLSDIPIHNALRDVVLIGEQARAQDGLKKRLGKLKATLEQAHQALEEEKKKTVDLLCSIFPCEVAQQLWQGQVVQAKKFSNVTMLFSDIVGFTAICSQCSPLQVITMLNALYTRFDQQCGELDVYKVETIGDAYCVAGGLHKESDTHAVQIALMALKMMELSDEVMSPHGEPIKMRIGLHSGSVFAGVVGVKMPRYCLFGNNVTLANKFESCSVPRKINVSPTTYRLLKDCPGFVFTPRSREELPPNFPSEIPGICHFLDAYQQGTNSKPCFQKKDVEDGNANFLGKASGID
T1 sequence (Q02153 1-619): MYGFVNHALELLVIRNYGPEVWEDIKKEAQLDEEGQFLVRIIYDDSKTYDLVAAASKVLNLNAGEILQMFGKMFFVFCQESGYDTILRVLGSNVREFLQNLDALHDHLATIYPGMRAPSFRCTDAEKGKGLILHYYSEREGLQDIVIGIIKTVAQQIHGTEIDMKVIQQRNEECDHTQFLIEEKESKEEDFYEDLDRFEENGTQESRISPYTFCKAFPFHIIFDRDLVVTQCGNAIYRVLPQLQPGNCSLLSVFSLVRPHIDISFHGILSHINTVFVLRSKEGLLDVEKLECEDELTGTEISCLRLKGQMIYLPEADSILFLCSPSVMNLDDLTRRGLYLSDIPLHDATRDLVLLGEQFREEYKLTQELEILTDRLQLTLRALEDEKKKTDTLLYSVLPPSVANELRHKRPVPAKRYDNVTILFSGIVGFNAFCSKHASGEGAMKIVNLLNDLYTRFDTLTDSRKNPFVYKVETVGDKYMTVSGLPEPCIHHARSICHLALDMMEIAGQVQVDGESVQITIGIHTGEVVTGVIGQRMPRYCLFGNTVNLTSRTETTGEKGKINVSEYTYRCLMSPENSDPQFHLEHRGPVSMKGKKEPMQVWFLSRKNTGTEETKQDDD
Kind of test: Cell-based sGC Functional Assay (CASA Assay), cGMP generation. The settings on record: CHO-K1/sGC cells, 1 hr at 37° C., cGMP by HTRF, 4P fit; presence or absence of 1 μM DETA-NO not given; read-out: IP (nM) (inflection point). The text has this: sGC is a heme-containing enzyme that converts GTP to secondary messenger cGMP. Increases in cGMP levels affect several physiological processes including vasorelaxation through multiple downstream pathways. […] Heme-dependent activators (HDAs) preferentially activate sGC containing a ferrous heme group. To determine the effect of sGC activators on enzyme activity, the CASA assay was developed to monitor the generation of cGMP in a cell line that stably expresses the heterodimeric sGC protein.
A CHO-K1 cell line stably expressing the sGC α1/β1 heterodimer was generated using a standard transfection protocol. CHO-K1 cells were transfected with plasmids pIREShyghsGCα1 and pIRESneo-hsGCβ1 simultaneously using FUGENE reagent. Clones that stably express both subunits were selected with hygromycin and neomycin for ˜2 weeks. Clone #7 was chosen for the assay and was designated CHO-K1/sGC. CHO-K1/sGC cells were maintained in F-K12 medium containing 10% heat-inactivated Fetal Bovine Serum (FBS), 100 μg/mL penicillin/streptomycin, 0.5 mg/mL hygromycin and 0.25 mg/mL G418. The cells were then cryopreserved in LN2. On the day of the assay, cells thawed and resuspended in EBSS Assay Buffer (Sigma, E3024) supplemented with 5 mM MgCl2, 10 mM HEPES (4-(2-hydroxyethyl)piperazine-1-ethanesulfonic acid) and 0.05% BSA (bovine serum albumin) (EAB) and cell density was then adjusted to 4×10^5/mL with EAB, IBMX (3-isobutyl-1-methylxanthin, 0.5 mM) was added to inhibit degradation of cGMP. Compounds were diluted from DMSO stock solutions and added to the assay at a final DMSO concentration of 2.5%. Cells were incubated with compounds in the presence and absence of 1 μM of Diethylenetriamine/nitric oxide adduct (DETA-NO; Sigma, 17018) for 1 hr at 37° C. At the end of the incubation period, the reaction was terminated and the cells were lysed with the detection reagents from Cisbio Kits. The level of intracellular cGMP was determined using an HTRF-based assay kit (CisBio, 62GM2PEC), which detects the displacement of a fluorescence labeled cGMP from its specific antibody. The cGMP produced by test compounds was directly compared to the maximum cGMP production (this value was set to equal 100% activation.) of the published sGC-HDA Compound A:
[drawing 300] (Example 1 in WO 2010/065275, published Jun. 10, 2010). The test compounds' activities were then expressed as a percentage of Compound A, the standard in every experiment. This percent activation was calculated either in the presence or absence of DETA-NO which was then plotted. IP and maximum fold induction was derived using ADA analysis software for 4P fit.
The compounds in the Examples of the instant invention had inflection points (IP) less than or equal to 10 μM and more particularly less than or equal to about 1 μM.
On the technique in general: In TR-FRET formats the signal depends on donor and acceptor labels being close together.
In the case of `CC(F)(F)c1ccc(C2(C)C(=O)Nc3nc(-c4cn5ncnc5c(CCC(F)(F)C(F)(F)F)n4)nc(N)c32)cn1` (racemic) [Example 16B, 4-amino-5-(6-(1,1-difluoroethyl)pyridin-3-yl)-5-methyl-2-(8-(3,3,4,4,4-pentafluorobutyl)-[1,2,4]triazolo[1,5-a]pyrazin-6-yl)-5H-pyrrolo[2,3-d]pyrimidin-6(7H)-one], the EC50 amounted to 13.1 nM.

For the molecule `Cc1ccc(C2(C3CC3)C(=O)Nc3nc(-c4cn5ncnc5c(CCC(F)(F)C(F)(F)F)n4)nc(N)c32)nc1` (racemic) [Example 17B, 4-amino-5-cyclopropyl-5-(5-methylpyridin-2-yl)-2-(8-(3,3,4,4,4-pentafluorobutyl)-[1,2,4]triazolo[1,5-a]pyrazin-6-yl)-5H-pyrrolo[2,3-d]pyrimidin-6(7H)-one], the EC50 came to 36.1 nM.

Turning to `Cc1cnc(C2(C3CC3)C(=O)Nc3nc(-c4cn5ncnc5c(CCC(F)(F)C(F)(F)F)n4)nc(N)c32)cn1` (racemic) [Example 21B, 4-amino-5-cyclopropyl-5-(5-methylpyrazin-2-yl)-2-(8-(3,3,4,4,4-pentafluorobutyl)-[1,2,4]triazolo[1,5-a]pyrazin-6-yl)-5H-pyrrolo[2,3-d]pyrimidin-6(7H)-one], the EC50 worked out at 43.1 nM.

For `CC(F)(F)c1ccc(C2(C)C(=O)Nc3nc(-c4cn5ncnc5c(CCCC(F)(F)F)n4)nc(N)c32)cn1` (racemic) [Example 45B, 4-amino-5-(6-(1,1-difluoroethyl)pyridin-3-yl)-5-methyl-2-(8-(4,4,4-trifluorobutyl)-[1,2,4]triazolo[1,5-a]pyrazin-6-yl)-5H-pyrrolo[2,3-d]pyrimidin-6(7H)-one], the EC50 was 44.2 nM.

For `Cc1ccc(C2(C3CC3)C(=O)Nc3nc(-c4cn5ncnc5c(CCCC(F)(F)F)n4)nc(N)c32)nc1` (racemic) [Example 47B, 4-amino-5-cyclopropyl-5-(5-methylpyridin-2-yl)-2-(8-(4,4,4-trifluorobutyl)-[1,2,4]triazolo[1,5-a]pyrazin-6-yl)-5H-pyrrolo[2,3-d]pyrimidin-6(7H)-one], the EC50 was 144 nM.

`Cc1nc(C2(C)C(=O)Nc3nc(-c4cn5ncnc5c(CCCC(F)(F)F)n4)nc(N)c32)ccc1C(F)(F)F` (racemic) [Example 49B, 4-amino-5-methyl-5-(6-methyl-5-(trifluoromethyl)pyridin-2-yl)-2-(8-(4,4,4-trifluorobutyl)-[1,2,4]triazolo[1,5-a]pyrazin-6-yl)-5H-pyrrolo[2,3-d]pyrimidin-6(7H)-one]: the EC50 is 595 nM.

Turning to `CC1(c2ncc(C(F)(F)F)cn2)C(=O)Nc2nc(-c3cn4ncnc4c(CCCC(F)(F)F)n3)nc(N)c21` (racemic) [Example 51B, 4-amino-5-methyl-2-(8-(4,4,4-trifluorobutyl)-[1,2,4]triazolo[1,5-d]pyrazin-6-yl)-5-(5-(trifluoromethyl)pyrimidin-2-yl)-5H-pyrrolo[2,3-d]pyrimidin-6(7H)-one], the EC50 was determined as 15.1 nM.

With `CCCCc1nc(-c2nc(N)c3c(n2)NC(=O)C3(c2ccc(C)cn2)C2CC2)cn2ncnc12` (racemic) [Example 72B, 4-amino-2-(8-butyl-[1,2,4]triazolo[1,5-a]pyrazin-6-yl)-5-cyclopropyl-5-(5-methylpyridin-2-yl)-5H-pyrrolo[2,3-d]pyrimidin-6(7H)-one], the EC50 came out at 28.5 nM.

For the molecule `Nc1nc(-c2cn3ncnc3c(CCCC(F)(F)F)n2)nc2c1C(c1ccc(C(F)(F)F)cn1)(C1CC1)C(=O)N2` (single isomer, unassigned) [Example 2A, 4-Amino-5-cyclopropyl-2-(8-(4,4,4-trifluorobutyl)-[1,2,4]triazolo[1,5-a]pyrazin-6-yl)-5-(5-(trifluoromethyl)pyridin-2-yl)-5H-pyrrolo[2,3-d]pyrimidin-6(7H)-one], the EC50 came to 128 nM.

As to `Cc1nnc(C2(C)C(=O)Nc3nc(-c4cn5ncnc5c(CCC(F)(F)C(F)(F)F)n4)nc(N)c32)o1` (single isomer, unassigned) [Example 97B, 4-Amino-5-methyl-5-(5-methyl-1,3,4-oxadiazol-2-yl)-2-(8-(3,3,4,4,4-pentafluorobutyl)-[1,2,4]triazolo[1,5-a]pyrazin-6-yl)-5H-pyrrolo[2,3-d]pyrimidin-6(7H)-one], the EC50 was 219 nM.

Regarding `Nc1nc(-c2cn3ncnc3c(CCCC(F)(F)F)n2)nc2c1C(c1ncc(C(F)(F)F)cn1)(C1CC1)C(=O)N2` (single isomer, unassigned) [Example 180B, 4-amino-5-cyclopropyl-2-(8-(4,4,4-trifluorobutyl)-[1,2,4]triazolo[1,5-a]pyrazin-6-yl)-5-(5-(trifluoromethyl)pyrimidin-2-yl)-5,7-dihydro-6H-pyrrolo[2,3-d]pyrimidin-6-one], the EC50 stood at 488 nM.

As to `CC1(c2ccc(Cl)cn2)C(=O)Nc2nc(-c3cn4ncnc4c(CCC(F)(F)C(F)(F)F)n3)nc(N)c21` (stereo not drawn) [Example 3A, 4-amino-5-(5-chloropyridin-2-yl)-5-methyl-2-(8-(3,3,4,4,4-pentafluorobutyl)-[1,2,4]triazolo[1,5-a]pyrazin-6-yl)-5H-pyrrolo[2,3-d]pyrimidin-6(7H)-one], the EC50 came out at 40.4 nM.

For the molecule `CC1(c2ccc(Cl)c(F)c2)C(=O)Nc2nc(-c3cn4ncnc4c(CCC(F)(F)C(F)(F)F)n3)nc(N)c21` (stereo not drawn) [Example 5B, 4-amino-5-(4-chloro-3-fluorophenyl)-5-methyl-2-(8-(3,3,4,4,4-pentafluorobutyl)-[1,2,4]triazolo[1,5-a]pyrazin-6-yl)-5H-pyrrolo[2,3-d]pyrimidin-6(7H)-one], the EC50 was 20.9 nM.

Regarding `Nc1nc(-c2cn3ncnc3c(CCC(F)(F)C(F)(F)F)n2)nc2c1C(c1ccc(F)c(F)c1)(C1CC1)C(=O)N2` (stereo not drawn) [Example 6A, 4-amino-5-cyclopropyl-5-(3,4-difluorophenyl)-2-(8-(3,3,4,4,4-pentafluorobutyl)-[1,2,4]triazolo[1,5-a]pyrazin-6-yl)-5H-pyrrolo[2,3-d]pyrimidin-6(7H)-one], the EC50 is 27 nM.

With `Nc1nc(-c2cn3ncnc3c(CCC(F)(F)C(F)(F)F)n2)nc2c1C(c1ccc(Cl)cn1)(C1CC1)C(=O)N2` (stereo not drawn) [Example 7A, 4-amino-5-(5-chloropyridin-2-yl)-5-cyclopropyl-2-(8-(3,3,4,4,4-pentafluorobutyl)-[1,2,4]triazolo[1,5-a]pyrazin-6-yl)-5H-pyrrolo[2,3-d]pyrimidin-6(7H)-one], the EC50 was 41.4 nM.
